# Reference: patent US20130253022A1 (FOX CHASE CHEMICAL DIVERSITY CENTER, INC., priority 2010, published 2013)
# Key:
# [1] = test system: pentylenetetrazol-induced clonic seizures; test: Subcutaneous pentylenetetrazol seizure test (scPTZ), mouse; assay type: in vivo, Carworth Farms No. 1 mice; settings: pentylenetetrazol 85 mg/kg s.c., test compound intraperitoneally, read-out: Mouse PTZ ED50, s.c.
# Method: (§1) Methods to measure anticonvulsant activity: All tests were conducted by the Anticonvulsant Screening Program (ASP) of the National Institute of Neurological Disease and Stroke at the National Institutes of Health. The subcutaneous pentylenetetrazol (metrazol) seizure test (scPTZ). This model primarily identifies compounds that raise seizure threshold. The behavioral seizure produced is not typical of absence epilepsy but clonic in nature. With some minor exceptions, the pharmacological profile of the scPTZ seizure model is consistent with the human condition. The scPTZ test utilizes a dose of pentylenetetrazol (85 mg/kg in Carworth Farms No. 1 mice and 70 mg/kg in Sprague-Dawley rats). This produces clonic seizures lasting for a period of at least five seconds in 97 percent of animals tested. At the anticipated time of testing the convulsant is administered subcutaneously. The test compound is administered intraperitoneally in mice and orally in rats. Animals are observed over a 30 minute period. Absence of clonic spasms in the observed time period indicates a compound's ability to abolish the effect of pentylenetetrazol on seizure threshold (Swinyard E A. Laboratory evaluation of antiepileptic drugs: review of laboratory methods. Epilepsia, 1969, 10, 107-119).
# Hippocampal Cultures [2] = test: Neuroprotection from hydrogen peroxide (oxidative stress), CFDA assay; assay type: cell-based; settings: Rattus norvegicus; 10 μM hydrogen peroxide, hippocampal cultures, 4 hour test period; read-out: NP from Hydrogen Peroxide CFDA EC50
# Description: (§2) Cell cultures: All compounds are screened with dissociated hippocampal cultures derived from embryonic day 18 rats as the primary test system. With this preparation, primary neurons are used to test for toxicity as well as neuroprotection in a highly relevant experimental system to epilepsy. In brief, hippocampal tissue are obtained commercially through Brain Bits (Springfield, Ill.) and cultures prepared as previously described by Brewer (Brewer, G. J. Serum-free B27/neurobasal medium supports differentiated growth of neurons from the striatum, substantia nigra, septum, cerebral cortex, cerebellum and dentate gyms, J. Neurosci. Res. 1995, 42, 674-683). The hippocampal neurons are platted at low density (10,000 cell/well) in a 96-well format and maintained in serum-free medium consisting of Neurobasal Medium supplemented with B27 and GlutaMAX (Gibco). Pre-coated poly-L-lysine coated plates are used because of the preferential adherence and survival of hippocampal neurons on this matrix support.
# (§3) Potent neuroprotection is the distinguishing characteristic that separates this program's anticonvulsants from all other commercial drugs for epilepsy. The experimental details and the rationale for the implemented assays are essential in differentiating these compounds from that of others. The central objective of all neuroprotective assays was their relevancy to excitotoxicity and oxidative stress related to epilepsy. Both the amount of glutamate and hydrogen peroxide used in the assays, as well as the time of treatment and duration of the experiment, were designed to be relevant to epilepsy. Further, all time parameters employed in these studies were empirically determined to be within the limits of reversible toxic events, yet using amounts of glutamate and hydrogen peroxide that were relevant to the disease. In regard to glutamate toxicity, a critical feature was the duration of treatment of the hippocampal neurons. The rational for using a short 5 min treatment with glutamate was based on the observation of Randall and Thayer (Randall, R. D.; Thayer, S. A. Glutamate-induced calcium transient triggers calcium overload and neurotoxicity in rat hippocampal neurons, J. Neurosci. 1992, 12, 1882-1895). […] The rationale is that this intense burst of glutamate and resulting calcium overload is relevant to seizures and therefore was important data to capture in the screening assay. The amount of glutamate (30 μM) employed in our screening was based on the basal levels of glutamate observed in microdialysis measurements of hippocampus from epileptogenic patients (Cavus et al. Decreased hippocampal volume on MRI is associated with increased extracellular glutamate in epilepsy patients, Epilepsia, 2008, 49, 1358-1366). In regard to hydrogen peroxide, the amount employed (10 μM) was detected in the hippocampus of rats after kainate-induced status epilepticus (Jarrett et. al., Mitochondrial DNA damage and impaired base excision repair during epileptogenesis, Neurobiol. Dis. 2008, 30, 130-138). To produce neural damage and death with these amounts of glutamate and hydrogen peroxide, the cultures were changed to a medium with significant depletion of antioxidant components in the defined medium supplement B-27 just prior to treatment with the compounds. This was performed to obtain a significant and reproducible toxic signal in the hippocampal neurons and because loss of antioxidant control may be a component of epileptogenesis (Waldbaum and Patel, Mitochondria, oxidative stress and temporal lobe epilepsy, Epilepsy Res. 2010 88, 23-45; Wu et al., Mitochondrial DNA mutation-elicited oxidative stress, oxidative damage, and altered gene expression in cultured cells of patients with MERRF syndrome, Mol. Neurobiol. 2010, 41, 256-266). Neuroprotection studies with hydrogen peroxide were conducted with cultures that were between day 12 and day 18. Studies of neuroprotection glutamate were conducted between day 19 and day 22. […]
# [3] = test system: MES-induced seizure spread; test: Maximal electroshock seizure (MES) test, rat; assay type: in vivo, rats; settings: po
# Method: Seizure-related assays, Maximal electroshock test: The most definitive assay for anti-seizure activity is the maximal electroshock (MES) test (Swinyard, E. A. Laboratory evaluation of antiepileptic drugs: review of laboratory methods, Epilepsia, 1969, 10, 107-119). […] With both rodent assays, the duration of action is of high importance as well as the potency of the response.
# Methods to measure anticonvulsant activity: All tests were conducted by the Anticonvulsant Screening Program (ASP) of the National Institute of Neurological Disease and Stroke at the National Institutes of Health.
# The Maximal Electroshock Seizure (MES) or Maximal Seizure Pattern Test: The MES is a model for generalized tonic-clonic seizures (Putnam and Merritt. Experimental determination of the anticonvulsant properties of some phenyl derivatives. Science 1937, 85, 113-118). It is highly reproducible with consistent endpoints. The behavioral and electrographic seizures generated in this model are consistent with the human disorder. This model identifies those compounds which prevent seizure spread.
# In the MES test, an electrical stimulus of 0.2 s in duration (50 mA in mice and 150 mA in rat at 60 Hz) is delivered via corneal electrodes primed with an electrolyte solution containing an anesthetic agent. Mice are tested at 30 minutes and 4 hours following doses of 30, 100 and 300 mg/kg of test compound. Test compounds are administered intraperitoneally to the mice. Rats are tested at time intervals between 0.25 and 4 hours following a standard oral dose of 30 mg/kg. Abolition of the hindlimb tonic extensor component indicates the test compound's ability to inhibit MES-induced seizure spread.
# Hippocampal Cultures [4] = test: Neuroprotection from hydrogen peroxide (oxidative stress), propidium iodide assay; assay type: cell-based; settings: Rattus norvegicus; 10 μM hydrogen peroxide, hippocampal cultures, 4 hour test period; read-out: NP from Hydrogen Peroxide PI EC50
# Description: as §2, §3
# [5] = test system: pentylenetetrazol-induced clonic seizures; test: Subcutaneous pentylenetetrazol seizure test (scPTZ), rat; assay type: in vivo, Sprague-Dawley rats; settings: pentylenetetrazol 70 mg/kg s.c., test compound orally, read-out: Rat PTZ ED50, s.c.
# Method: as §1
EC50 (Hippocampal Cultures [2]) [nM],EC50 (Hippocampal Cultures [4]) [nM],SMILES,ED50 [1] [mg/kg],ED50 [3] [mg/kg],ED50 [5] [mg/kg]
0.1,0.1,"NS(=O)(=O)NCC(F)(F)c1ccccc1Cl [Example 2, 2,2-Difluoro-2-(2-chlorophenyl)-ethyl-1-sulfamide]",98,30,48
1,1,"NS(=O)(=O)NCC(F)(F)c1ccccc1F [Example 1, 2,2-Difluoro-2-(2-fluorophenyl)-ethyl-1-sulfamide]",108,30,107
